Reference: ChEMBL document CHEMBL2321867, “Synthesis and structure-activity relationships of 2-hydrazinyladenosine derivatives as A(2A) adenosine receptor ligands” (Bioorg Med Chem, 2013)

Legend:
Adenosine receptor A2a [1] = biological target: Adenosine receptor A2a (Rattus norvegicus, UniProt P30543); experiment: Displacement of [3H]CGS21680 from adenosine A2A receptor in rat brain striatal membrane after 60 mins by liquid scintillation counting analysis; type: cell membranes
[2] = biological target: Adenosine receptor A2a (Rattus norvegicus) (UniProt P30543); experiment: Displacement of [3H]CGS21680 from adenosine A2A receptor in rat brain striatal membrane at 1 uM after 60 mins by liquid scintillation counting analysis; type: cell membranes
Adenosine receptor A2a [3] = biological target: Adenosine receptor A2a (Homo sapiens, UniProt P29274); experiment: Agonist activity at human recombinant adenosine A2A receptor expressed in CHO cells assessed as [3H]cAMP accumulation after 15 mins by liquid scintillation counting; type: functional, cell-based
[4] = biological target: T1, Adenosine receptor A3 (Homo sapiens) (UniProt P0DMS8); experiment: Displacement of [3H]NECA from human recombinant adenosine A3 receptor expressed in CHO cells at 1 uM after 180 mins by liquid scintillation counting analysis; type: cell-based
T1 sequence (whole entry): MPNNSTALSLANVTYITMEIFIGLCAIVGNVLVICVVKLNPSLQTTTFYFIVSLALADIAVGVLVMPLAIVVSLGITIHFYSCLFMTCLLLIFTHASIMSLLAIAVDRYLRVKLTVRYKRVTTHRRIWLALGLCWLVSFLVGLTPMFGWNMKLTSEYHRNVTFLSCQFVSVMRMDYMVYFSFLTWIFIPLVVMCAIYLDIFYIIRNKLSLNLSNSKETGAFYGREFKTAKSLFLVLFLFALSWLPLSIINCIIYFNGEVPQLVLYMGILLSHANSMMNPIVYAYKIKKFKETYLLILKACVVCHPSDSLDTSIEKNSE

Adenosine receptor A3 [5] = biological target: T2, Adenosine receptor A3 (Homo sapiens, UniProt P0DMS8); experiment: Displacement of [3H]NECA from human recombinant adenosine A3 receptor expressed in CHO cells after 180 mins by liquid scintillation counting analysis; type: cell-based
T2 sequence (P0DMS8 whole entry): T1 sequence (whole entry)

[6] = biological target: T3, Adenosine receptor A1 (Rattus norvegicus) (UniProt P25099); experiment: Displacement of [3H]CCPA from adenosine A1 receptor in rat brain cortical membrane at 1 uM after 90 mins by liquid scintillation counting analysis; type: cell membranes
T3 sequence (whole entry): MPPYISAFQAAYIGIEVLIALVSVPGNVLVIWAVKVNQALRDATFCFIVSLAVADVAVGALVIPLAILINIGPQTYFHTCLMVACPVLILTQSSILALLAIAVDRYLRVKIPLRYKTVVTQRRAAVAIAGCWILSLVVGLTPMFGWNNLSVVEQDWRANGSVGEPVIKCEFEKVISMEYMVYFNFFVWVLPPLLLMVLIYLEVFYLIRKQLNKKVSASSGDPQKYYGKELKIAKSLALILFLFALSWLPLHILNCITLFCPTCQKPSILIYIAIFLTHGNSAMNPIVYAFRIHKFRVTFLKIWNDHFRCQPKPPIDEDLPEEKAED

Adenosine receptor A1 [7] = biological target: T4, Adenosine receptor A1 (Rattus norvegicus, UniProt P25099); experiment: Displacement of [3H]CCPA from adenosine A1 receptor in rat brain cortical membrane after 90 mins by liquid scintillation counting analysis; type: cell membranes
T4 sequence (P25099 whole entry): T3 sequence (whole entry)

Adenosine receptor A1 [8] = biological target: T5, Adenosine receptor A1 (Homo sapiens, UniProt P30542); experiment: Displacement of [3H]CCPA from human recombinant adenosine A1 receptor expressed in CHO cells 90 mins by liquid scintillation counting analysis; type: cell-based
T5 sequence (P30542 whole entry): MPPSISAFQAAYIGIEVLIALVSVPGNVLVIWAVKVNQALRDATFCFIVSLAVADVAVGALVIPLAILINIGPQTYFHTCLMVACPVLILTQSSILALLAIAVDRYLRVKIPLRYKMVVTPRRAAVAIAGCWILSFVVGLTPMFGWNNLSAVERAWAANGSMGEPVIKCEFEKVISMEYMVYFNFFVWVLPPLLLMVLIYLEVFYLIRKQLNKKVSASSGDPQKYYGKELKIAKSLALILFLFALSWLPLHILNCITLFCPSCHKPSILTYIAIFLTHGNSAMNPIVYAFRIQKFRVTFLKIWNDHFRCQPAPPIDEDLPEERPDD

Adenosine receptor A3 [9] = biological target: T2, Adenosine receptor A3; experiment: Displacement of [3H]NECA from human recombinant adenosine A3 receptor
[10] = biological target: T6, Adenosine receptor A2b (Homo sapiens) (UniProt P29275); experiment: Displacement of [3H]PSB-603 from human recombinant adenosine A2B receptor expressed in CHO cells at 10 uM after 75 mins by liquid scintillation counting analysis; type: cell-based
T6 sequence (whole entry): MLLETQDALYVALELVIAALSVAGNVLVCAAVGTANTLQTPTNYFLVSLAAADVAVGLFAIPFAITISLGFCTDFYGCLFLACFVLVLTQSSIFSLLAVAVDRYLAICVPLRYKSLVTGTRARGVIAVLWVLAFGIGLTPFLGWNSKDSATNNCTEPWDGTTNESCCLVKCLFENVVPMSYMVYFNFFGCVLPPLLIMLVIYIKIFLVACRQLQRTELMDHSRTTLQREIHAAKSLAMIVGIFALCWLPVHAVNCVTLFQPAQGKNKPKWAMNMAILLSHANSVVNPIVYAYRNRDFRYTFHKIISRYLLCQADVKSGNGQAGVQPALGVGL

Adenosine receptor A1 [11] = biological target: T5, Adenosine receptor A1

Adenosine receptor A2a (Rattus norvegicus, UniProt P30543), sequence (P30543 whole entry): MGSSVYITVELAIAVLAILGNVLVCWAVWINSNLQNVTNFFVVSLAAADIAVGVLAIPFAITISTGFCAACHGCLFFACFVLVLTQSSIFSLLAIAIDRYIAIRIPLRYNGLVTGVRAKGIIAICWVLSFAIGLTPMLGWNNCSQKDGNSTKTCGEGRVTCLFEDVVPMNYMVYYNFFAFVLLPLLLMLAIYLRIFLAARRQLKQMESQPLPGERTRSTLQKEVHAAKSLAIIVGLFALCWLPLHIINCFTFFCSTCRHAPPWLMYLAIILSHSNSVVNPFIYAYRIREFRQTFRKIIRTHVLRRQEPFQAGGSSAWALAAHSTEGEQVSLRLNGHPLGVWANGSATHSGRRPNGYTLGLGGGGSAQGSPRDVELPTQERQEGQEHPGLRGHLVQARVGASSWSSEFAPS
Adenosine receptor A2a (Rattus norvegicus), sequence (P30543 whole entry): as above
Adenosine receptor A2a (Homo sapiens, UniProt P29274), sequence (P29274 whole entry): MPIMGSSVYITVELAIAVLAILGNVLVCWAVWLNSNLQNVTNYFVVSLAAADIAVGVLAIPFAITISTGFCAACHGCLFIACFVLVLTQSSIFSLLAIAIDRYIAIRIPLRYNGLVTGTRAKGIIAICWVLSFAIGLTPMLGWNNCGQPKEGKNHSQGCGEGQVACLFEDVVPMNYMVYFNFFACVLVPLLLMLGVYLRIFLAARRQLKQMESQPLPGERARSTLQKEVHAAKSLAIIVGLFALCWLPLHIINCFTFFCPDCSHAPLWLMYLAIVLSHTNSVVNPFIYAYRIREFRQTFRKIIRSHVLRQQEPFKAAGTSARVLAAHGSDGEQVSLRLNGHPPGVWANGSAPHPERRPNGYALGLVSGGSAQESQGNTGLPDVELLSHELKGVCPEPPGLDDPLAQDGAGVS

SMILES	Ki (Adenosine receptor A2a [1]) [nM]	inhibition [2] [%]	also measured
Nc1nc(N/N=C/c2ccc(Cl)cc2)nc2c1ncn2[C@@H]1O[C@H](CO)[C@@H](O)[C@H]1O	16.1		
Nc1nc(N/N=C/[C@@H](O)[C@H](O)[C@@H](O)[C@@H](O)CO)nc2c1ncn2[C@@H]1O[C@H](CO)[C@@H](O)[C@H]1O	> 1000	42	
Nc1nc(N/N=C/c2ccc(Cl)c(Cl)c2)nc2c1ncn2[C@@H]1O[C@H](CO)[C@@H](O)[C@H]1O	24.4		EC50 (Adenosine receptor A2a [3]): 1660 nM
Nc1nc(N/N=C/c2ccc(Cl)cc2O)nc2c1ncn2[C@@H]1O[C@H](CO)[C@@H](O)[C@H]1O	91.7		
Nc1nc(N/N=C(\CO)[C@H](O)[C@@H](O)[C@@H](O)CO)nc2c1ncn2[C@@H]1O[C@H](CO)[C@@H](O)[C@H]1O	> 1000	34	
CN(NC(=S)Nc1ccccc1)c1nc(N)c2ncn([C@@H]3O[C@H](CO)[C@@H](O)[C@H]3O)c2n1	> 1000	16	inhibition [4]: 36%; Ki (Adenosine receptor A3 [5]): > 1000 nM; inhibition [6]: 1%; Ki (Adenosine receptor A1 [7]): > 1000 nM
CN(/N=C(\CO)[C@H](O)[C@@H](O)[C@@H](O)CO)c1nc(N)c2ncn([C@@H]3O[C@H](CO)[C@@H](O)[C@H]3O)c2n1	> 1000	25	
COc1ccc(/C=N/Nc2nc(N)c3ncn([C@@H]4O[C@H](CO)[C@@H](O)[C@H]4O)c3n2)cc1	12		Ki (Adenosine receptor A1 [8]): 723 nM
Nc1nc(N/N=C/[C@@H](O)[C@@H](O)[C@@H](O)CO)nc2c1ncn2[C@@H]1O[C@H](CO)[C@@H](O)[C@H]1O	> 1000	33	
CN(NC(=O)Nc1ccccc1)c1nc(N)c2ncn([C@@H]3O[C@H](CO)[C@@H](O)[C@H]3O)c2n1	> 1000	11	
Nc1nc(N/N=C/C2CCCCC2)nc2c1ncn2[C@@H]1O[C@H](CO)[C@@H](O)[C@H]1O [BINODENOSON]	25.5		Ki (Adenosine receptor A3 [9]): 903 nM; Ki (Adenosine receptor A3 [5]): 52.6 nM; inhibition [10]: 17%; Ki (Adenosine receptor A1 [8]): 169 nM; Ki (Adenosine receptor A1 [7]): 70.8 nM; Ki (Adenosine receptor A1 [11]): 48000 nM

Second part, led by results:

Ki (Adenosine receptor A2a [1]) [nM]	inhibition [2] [%]	SMILES	also measured
> 1000	31	CN(/N=C/[C@@H](O)[C@H](O)[C@@H](O)[C@@H](O)CO)c1nc(N)c2ncn([C@@H]3O[C@H](CO)[C@@H](O)[C@H]3O)c2n1	
> 1000	33	Nc1nc(N/N=C/[C@H](O)[C@H](O)[C@@H](O)[C@@H](O)CO)nc2c1ncn2[C@@H]1O[C@H](CO)[C@@H](O)[C@H]1O	
> 1000	7	CN(/N=C/[C@@H](O)[C@@H](O)[C@@H](O)CO)c1nc(N)c2ncn([C@@H]3O[C@H](CO)[C@@H](O)[C@H]3O)c2n1	
329		Nc1nc(N/N=C/[C@@H](O)[C@H](O)[C@H](O)[C@@H](O)CO)nc2c1ncn2[C@@H]1O[C@H](CO)[C@@H](O)[C@H]1O	EC50 (Adenosine receptor A2a [3]): 1440 nM
> 1000	25	CN(/N=C/[C@H](O)[C@@H](O)[C@@H](O)[C@H](O)CO)c1nc(N)c2ncn([C@@H]3O[C@H](CO)[C@@H](O)[C@H]3O)c2n1	
> 1000	2	CN(/N=C/[C@H](O)[C@H](O)[C@@H](O)[C@@H](O)CO)c1nc(N)c2ncn([C@@H]3O[C@H](CO)[C@@H](O)[C@H]3O)c2n1	
